Measured values as given in patent publication US9187429B2, “Phenyl-tetrahydroisoquinoline derivatives” (Hoffmann-La Roche Inc., priority 2012, dated 2015).
Counter-ions that a name gives are not always drawn.

What was measured:
CYP11B2 = CYP11B2 (Homo sapiens (Human), UniProt P19099); experiment: G-402 cellular enzyme assay, human CYP11B2 (aldosterone release); type: cell-based; details: G-402 cells expressing human CYP11B2, 1 μM Deoxycorticosterone
Source text: (§1) The expression plasmids contains the ORF for either human/cyno CYP11B1 or CYP11B2 under the control of a suitable promoter (CMV-promoter) and a suitable resistance marker (neomycin). Using standard techniques the expression plasmid is transfected into G-402 cells and these cells are then selected for expressing the given resistance markers. Individual cell-clones are then selected and assessed for displaying the desired enzymatic activity using 11-Deoxycorticosterone (Cyp 11B2) or 11-Deoxycortisol (Cyp 11B1) as a substrate.
(§2) G-402 cells expressing CYP11 constructs were established as described above and maintained in McCoy's 5a Medium Modified, ATCC Catalog No. 30-2007 containing 10% FCS and 400 μg/ml G418 (Geneticin) at 37° C. under an atmosphere of 5% CO2/95% air. […] For assaying enzymatic activity, cells were plated onto 96 well plates and incubated for 16 h. An aliquot of the supernatant is then transferred and analyzed for the concentration of the expected product (Aldosterone for CYP11B2; Cortisol for CYP11B1). The concentrations of these steroids can be determined using HTRF assays from CisBio analyzing either Aldosterone or Cortisol.
(§3) Inhibition of the release of produced steroids can be used as a measure of the respective enzyme inhibition by test compounds added during the cellular enzyme assay. The dose dependent inhibition of enzymatic activity by a compound is calculated by means of plotting added inhibitor concentrations (x-axes) vs. measured steroid/product level (y-axes). The inhibition is then calculated by fitting the following 4-parameter sigmoidal function (Morgan-Mercer-Flodin (MMF) model) to the raw data points using the least squares method:
(§4) [formula] wherein, A is the maximum y value, B is the EC50 factor determined using XLFit, C is the minimum y value and D is the slope value.
(§5) EC50 values for compounds claimed herein were tested with the G402-based assay system described. Cyp 11B2 enzyme activity was tested in presence of 1 μM Deoxycorticosterone and variable amounts of inhibitors; Cyp 11B1 enzyme activity was tested in presence of 1 μM Deoxycortisol and variable amounts of inhibitors.

human CYP11B1 = human CYP11B1 (Homo sapiens (Human), UniProt P15538); experiment: G-402 cellular enzyme assay, human CYP11B1 (cortisol release); type: cell-based; details: G-402 cells expressing human CYP11B1, 1 μM Deoxycortisol
Chain of human CYP11B1 (P15538 25-503): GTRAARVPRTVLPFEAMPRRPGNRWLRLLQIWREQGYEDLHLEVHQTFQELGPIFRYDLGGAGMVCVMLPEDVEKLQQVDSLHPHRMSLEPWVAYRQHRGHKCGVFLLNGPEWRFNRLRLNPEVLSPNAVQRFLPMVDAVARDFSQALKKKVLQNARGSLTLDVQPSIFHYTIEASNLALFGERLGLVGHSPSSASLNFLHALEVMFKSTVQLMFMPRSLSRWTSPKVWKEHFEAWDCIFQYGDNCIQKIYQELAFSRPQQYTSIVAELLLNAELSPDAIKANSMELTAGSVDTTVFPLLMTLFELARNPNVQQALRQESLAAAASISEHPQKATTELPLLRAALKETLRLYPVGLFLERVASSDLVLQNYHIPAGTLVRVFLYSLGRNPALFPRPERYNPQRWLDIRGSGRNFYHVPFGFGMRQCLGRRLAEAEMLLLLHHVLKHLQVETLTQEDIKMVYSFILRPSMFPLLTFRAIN
Source text: as §1, §2, §3, §4, §5

Chain of CYP11B2 (P19099 25-503): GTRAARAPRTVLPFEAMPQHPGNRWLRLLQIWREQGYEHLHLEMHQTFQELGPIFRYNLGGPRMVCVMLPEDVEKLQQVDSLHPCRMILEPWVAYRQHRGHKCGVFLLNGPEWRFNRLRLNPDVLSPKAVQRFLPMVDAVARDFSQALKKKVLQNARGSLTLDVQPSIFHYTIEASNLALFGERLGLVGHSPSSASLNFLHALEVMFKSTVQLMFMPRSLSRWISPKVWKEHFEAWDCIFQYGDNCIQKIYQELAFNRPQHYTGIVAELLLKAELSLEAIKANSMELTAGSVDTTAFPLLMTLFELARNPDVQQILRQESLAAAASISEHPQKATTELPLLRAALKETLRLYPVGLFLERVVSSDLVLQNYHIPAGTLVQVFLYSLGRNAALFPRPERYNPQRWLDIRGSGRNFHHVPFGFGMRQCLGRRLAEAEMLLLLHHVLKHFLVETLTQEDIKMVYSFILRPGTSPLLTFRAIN

| Structure (SMILES) | EC50 (CYP11B2) | EC50 (human CYP11B1) |
| --- | --- | --- |
| CCC(=O)NC1CCCc2c(-c3ccc(C(F)(F)F)cc3F)cncc21 (single isomer, unassigned; (-)) [Example 34, (−)-(S or R)—N-(4-(2-Fluoro-4-(trifluoromethyl)phenyl)-5,6,7,8-tetrahydroisoquinolin-8-yl)propionamide] | 4490 nM | 42400 nM |
| CCNC(=O)NC1CCCc2c(-c3ccc(C#N)cc3)cncc21 (racemic) [Example 4, (rac)-1-(4-(4-Cyanophenyl)-5,6,7,8-tetrahydroisoquinolin-8-yl)-3-ethylurea] | 220 nM | 2170 nM |
| CN(C)C(=O)COC1CCc2c(-c3ccc(C(F)(F)F)cc3)cncc21 (racemic) [Example 101, (rac)-N,N-Dimethyl-2-(4-(4-(trifluoromethyl)phenyl)-6,7-dihydro-5H-cyclopenta[c]pyridin-7-yloxy)acetamide] | 26.9 nM | 1270 nM |
| CNC(=O)COC1CCc2c(-c3ccc(C(F)(F)F)cc3)cncc21 (racemic) [Example 100, (rac)-N-Methyl-2-(4-(4-(trifluoromethyl)phenyl)-6,7-dihydro-5H-cyclopenta[c]pyridin-7-yloxy)acetamide] | 12.9 nM | 430 nM |
| CC1(COC2CCc3c(-c4ccc(C(F)(F)F)cc4)cncc32)COC1 (racemic) [Example 103, (rac)-7-((3-Methyloxetan-3-yl)methoxy)-4-(4-(trifluoromethyl)phenyl)-6,7-dihydro-5H-cyclopenta[c]pyridine] | 0.2 nM | 2.3 nM |
| CCC(=O)NC1CCCc2c(-c3ccc(F)c(C)c3)cncc21 (racemic) [Example 27, (rac)-N-(4-(4-Fluoro-3-methylphenyl)-5,6,7,8-tetrahydroisoquinolin-8-yl)propionamide] | 14 nM | 625 nM |
| N[C@@H]1CCCc2c(-c3ccc(C(F)(F)F)cc3F)cncc21 [Example 74, (+)-(R)-4-(2-Fluoro-4-(trifluoromethyl)phenyl)-5,6,7,8-tetrahydroisoquinolin-8-amine] | 32.8 nM | 1220 nM |
| CCS(=O)(=O)NC1CCc2c(-c3ccc(C(F)(F)F)cc3)cncc21 (single isomer, unassigned; (-)) [Example 65, (−)-(S or R)—N-(4-(4-(Trifluoromethyl)phenyl)-6,7-dihydro-5H-cyclopenta[c]pyridin-7-yl)ethanesulfonamide] | 1630 nM | 1080 nM |
| NC1CCc2c(-c3ccc(C(F)(F)F)cc3)cncc21 (racemic) [Example 93, (rac)-4-(4-Trifluoromethyl-phenyl)-6,7-dihydro-5H-[2]pyrindin-7-ylamine] | 86.3 nM | 364 nM |
| CCC(=O)N[C@@H]1c2cncc(-c3ccc(C(F)(F)F)cc3)c2CC[C@@H]1C (single isomer, unassigned) [Example 68, N-[(7S,8S or 7R,8R)-7-Methyl-4-(4-trifluoromethyl-phenyl)-5,6,7,8-tetrahydro-isoquinolin-8-yl]-propionamide] | 658 nM | 10700 nM |
| OC1CCc2c(-c3ccc(C(F)(F)F)cc3F)cncc21 (racemic) [Example 80, (rac)-4-(2-Fluoro-4-(trifluoromethyl)phenyl)-6,7-dihydro-5H-cyclopenta[c]pyridin-7-ol] | 4.5 nM | 427 nM |
| CCC(=O)NC1CCCc2c(-c3ccc(Cl)c(F)c3)cncc21 (single isomer, unassigned; (+)) [Example 38, (+)-(R or S)—N-(4-(4-Chloro-3-fluorophenyl)-5,6,7,8-tetrahydroisoquinolin-8-yl)propionamide] | 7 nM | 214 nM |
| CCC(=O)NC1CCc2c(-c3ccc(C#N)cc3)cncc21 (single isomer, unassigned; (-)) [Example 18, (−)-(S or R)—N-(4-(4-Cyanophenyl)-6,7-dihydro-5H-cyclopenta[c]pyridin-7-yl)propionamide] | 879 nM | 7220 nM |
| CCC(=O)NC1CCCc2c(-c3ccc(F)c(C)c3)cncc21 (single isomer, unassigned; (-)) [Example 28, (−)-(S or R)—N-(4-(4-Fluoro-3-methylphenyl)-5,6,7,8-tetrahydroisoquinolin-8-yl)propionamide] | 226 nM | 30400 nM |
| CC(=O)N[C@@H]1CCCc2c(-c3ccc(C(F)(F)F)c(F)c3)cncc21 [Example 79, (+)-(R)—N-(4-(3-Fluoro-4-(trifluoromethyl)phenyl)-5,6,7,8-tetrahydroisoquinolin-8-yl)acetamide] | 35.6 nM | 1780 nM |
| CCC(=O)N[C@@H]1c2cncc(-c3ccc(C(F)(F)F)cc3)c2CC[C@H]1C (single isomer, unassigned) [Example 67, N-[(7R,8S or 7S,8R)-7-Methyl-4-(4-trifluoromethyl-phenyl)-5,6,7,8-tetrahydro-isoquinolin-8-yl]-propionamide] | 764 nM | 8470 nM |

Second part, the compound after the results:

| EC50 (CYP11B2) | EC50 (human CYP11B1) | Structure (SMILES) |
| --- | --- | --- |
| 51.2 nM | 3540 nM | CC(=O)N[C@@H]1CCCc2c(-c3ccc(C(F)(F)F)cc3F)cncc21 [Example 75, (+)-(R)—N-(4-(2-Fluoro-4-(trifluoromethyl)phenyl)-5,6,7,8-tetrahydroisoquinolin-8-yl)acetamide] |
| 242 nM | 3020 nM | CCS(=O)(=O)NC1CCc2c(-c3ccc(C(F)(F)F)c(F)c3)cncc21 (racemic) [Example 71, (rac)-N-(4-(3-Fluoro-4-(trifluoromethyl)phenyl)-6,7-dihydro-5H-cyclopenta[c]pyridin-7-yl)ethanesulfonamide] |
| 16.4 nM | 441 nM | CCC(=O)OC1CCc2c(-c3ccc(C(F)(F)F)c(F)c3)cncc21 (racemic) [Example 92, (rac)-Propionic acid 4-(3-fluoro-4-trifluoromethyl-phenyl)-6,7-dihydro-5H-[2]pyrindin-7-yl ester] |
| 1260 nM | 31400 nM | CCC(=O)NC1CCCc2c(-c3ccc(Cl)c(F)c3)cncc21 (single isomer, unassigned; (-)) [Example 37, (−)-(S or R)—N-(4-(4-Chloro-3-fluorophenyl)-5,6,7,8-tetrahydroisoquinolin-8-yl)propionamide] |
| 8 nM | 31 nM | N#Cc1ccc(-c2cncc3c2CCCC3O)cc1 (racemic) [Example 11, (rac)-4-(8-Hydroxy-5,6,7,8-tetrahydroisoquinolin-4-yl)benzonitrile] |
| 1800 nM | 1960 nM | CS(=O)(=O)NC1CCc2c(-c3ccc(C(F)(F)F)cc3)cncc21 (racemic) [Example 95, (rac)-N-[4-(4-Trifluoromethyl-phenyl)-6,7-dihydro-5H-[2]pyrindin-7-yl]-methanesulfonamide] |
| 24 nM | 480 nM | CCC(=O)NC1CCCc2c(-c3ccc(F)c(Cl)c3)cncc21 (racemic) [Example 20, (rac)-N-(4-(3-Chloro-4-fluorophenyl)-5,6,7,8-tetrahydroisoquinolin-8-yl)propionamide] |
| 23.3 nM | 276 nM | CC(=O)N[C@@H]1CCCc2c(-c3ccc(C#N)cc3)cncc21 [Example 78, (+)-(R)—N-(4-(4-Cyanophenyl)-5,6,7,8-tetrahydroisoquinolin-8-yl)acetamide] |
| 1.4 nM | 72.4 nM | CC(C)(C)OC(=O)COC1CCc2c(-c3ccc(C(F)(F)F)cc3)cncc21 (racemic) [Example 97, (rac)-tert-Butyl 2-(4-(4-(trifluoromethyl)phenyl)-6,7-dihydro-5H-cyclopenta[c]pyridin-7-yloxy)acetate] |
| 203 nM | 3710 nM | C[C@@H](O)C(=O)NC1CCc2c(-c3ccc(C(F)(F)F)cc3)cncc21 (stereo partly drawn) [Example 52, (R)-2-Hydroxy-N—((R,S)-4-(4-(trifluoromethyl)phenyl)-6,7-dihydro-5H-cyclopenta[c]pyridin-7-yl)propanamide] |
| 280 nM | 14200 nM | CCS(=O)(=O)NC1CCc2c(-c3ccc(C(F)(F)F)cc3)cncc21 (single isomer, unassigned; (+)) [Example 66, (+)-(R or S)—N-(4-(4-(Trifluoromethyl)phenyl)-6,7-dihydro-5H-cyclopenta[c]pyridin-7-yl)ethanesulfonamide] |
| 82 nM | 7090 nM | CCC(=O)NC1CCCc2c(-c3ccc(C(F)(F)F)cc3)cncc21 (racemic) [Example 21, (rac)-N-(4-(4-(Trifluoromethyl)phenyl)-5,6,7,8-tetrahydroisoquinolin-8-yl)propionamide] |
| 65.9 nM | 1190 nM | O=C(O)COC1CCc2c(-c3ccc(C(F)(F)F)cc3)cncc21 (racemic) [Example 99, (rac)-2-(4-(4-(Trifluoromethyl)phenyl)-6,7-dihydro-5H-cyclopenta[c]pyridin-7-yloxy)acetic acid hydrochloride] |
